US5187168A, “Substituted quinazolines as angiotensin II antagonists” (American Home Products Corporation, priority 1991, dated 1993)

Tested on: A II-infused rat
Experiment: A II-infused rat model (ganglion-blocked, intraduodenal dosing), antihypertensive action
Assay type: in vivo
Conditions: 10 mg/kg id, one half hour post-administration
Experimental: In accordance with their ability to antagonize angiotensin II, the compounds of this invention show antihypertensive action in the following A II-infused rat model. Rats are anesthetized with Dial-Urethane (0.60 mL/kg, ip) and the trachea cannulated with PE 240. Either one femoral artery and both femoral veins or the carotid artery and the corresponding jugular vein are cannulated with PE 50. If the jugular vein is cannulated, two cannulas are placed in the one vein. The initial portion of the duodenum (just distal to the stomach) is cannulated with PE 50 via a small midline incision. Arterial pressure and heart rate are measured from the arterial cannula. Ten to 15 min are allowed following surgery for stabilization of arterial pressure. Ganglion blockade is then produced by intravenous administration of mecamylamine at 3 mg/kg (1 mL/kg of a 3 mg/mL solution). Ganglion blockade causes a fall in arterial pressure of about 50 mmHg. Mecamylamine is given every 90 min throughout the remainder of the experiment. An A II infusion is then begun into the other venous cannula at […] (at 9.6 uLmin). The A II infusion returns arterial pressure to or slightly above the control level. Once arterial pressure has stabilized with the A II infusion, baseline values for mean arterial pressure (MAP) and heart rate are taken. […]

Structure (SMILES): O=C(O)c1ccccc1-c1ccc(CNc2nc(C(F)(F)F)nc3ccsc23)cc1 [Example 36]
- lowering of the A II dependent blood pressure (average): 45%
